Results on 14 molecules are retold here after ChEMBL document CHEMBL4033632, “Design, synthesis and biological activity of novel donepezil derivatives bearing N-benzyl pyridinium moiety as potent and dual binding site acetylcholinesterase inhibitors” (Eur J Med Chem, 2017).

The structures appear in SMILES notation. Activity calls are given as the source filed them. The rule behind the calls is not given here.

Data set [1] relates to PC-12. Briefly: Neuroprotective activity against amyloid beta (1 to 42 residues) induced cell death in rat PC12 cells assessed as cell viability at 3.12 uM preincubated for 2 hrs followed by amyloid beta (1 to 42 residues) addition measured after 24 hrs by MTT assay (reference value: 50.5%). It counts as functional. To be noted: read-out: Activity. Background: Tetrazolium assays rely on reduction of a dye to a coloured formazan, in cell work by metabolically active cells.

For data set [2], the system named is PC-12. Description: Cytotoxicity against rat PC12 cells assessed as effect on cell viability at 6 to 100 uM after 24 hrs by MTT assay. It counts as cell-based. To be noted: pc-12, 24 h.
In data set [3] the test system is Mus musculus. Briefly: Toxicity in Kunming mouse assessed as body weight loss up to 2000 mg/kg, po measured up to 14 days post dose. To be noted: in vivo, 336 h. Format: organism-based.
Another data set can be described thus: physchem. To be noted: PAMPA. (In general: PAMPA measures passive passage across an artificial lipid membrane.)
The test system of data set [4] is Mus musculus. Description: Toxicity in Kunming mouse assessed as effect on food consumption up to 2000 mg/kg, po measured up to 14 days post dose. Format: organism-based. To be noted: in vivo, 336 h.
Data set [5] deals with Amyloid-beta precursor protein (Homo sapiens) (UniProt P05067). Briefly: Inhibition of amyloid beta (1 to 42) (unknown origin) self-induced aggregation assessed as reduction in amyloid beta fibrils by transmission electron microscopic analysis.
The subject of data set [6] is PC-12. Description: Neuroprotective activity against H2O2-induced oxidative damage in rat PC12 cells assessed as cell viability at 12.5 uM after 24 hrs by MTT assay relative to control. To be noted: PC-12, 24 h, read-out: Activity. It counts as functional.
Data set [7] has as its target Acetylcholinesterase (Homo sapiens, UniProt P22303). Briefly: Inhibition of human erythrocyte AChE using acetylthiocholine iodide as substrate pretreated for 6 mins followed by substrate addition measured up to 180 sec by Ellman's method.
Data set [8] addresses Amyloid-beta precursor protein (Homo sapiens) (UniProt P05067). Description: Inhibition of HFIP-pretreated amyloid beta (1 to 42) (unknown origin) self-induced aggregation at 20 uM incubated for 46 to 48 hrs by thioflavin-T fluorescence assay relative to control.
For data set [9], the system named is PC-12. Briefly: Neuroprotective activity against amyloid beta (1 to 42 residues) induced cell death in rat PC12 cells assessed as cell viability at 1.56 uM preincubated for 2 hrs followed by amyloid beta (1 to 42 residues) addition measured after 24 hrs by MTT assay (reference value: 50.5%). Format: functional. To be noted: read-out: Activity.
Data set [10] is described as follows: Antioxidant activity assessed as trolox equivalents of DPPH radical scavenging activity at 25 uM after 30 mins by UV-vis spectrophotometry. It counts as functional. Background: The DPPH test is a chemical assay of radical scavenging.
Data set [11] concerns the target Acetylcholinesterase (Electrophorus electricus) (UniProt O42275). Briefly: Mixed-type inhibition of electric eel AChE at 1.25 to 5 nM using varying levels of acetylthiocholine iodide substrate by Lineweaver-Burk plot analysis.
Data set [12] relates to PC-12. Description: Neuroprotective activity against amyloid beta (1 to 42 residues) induced cell death in rat PC12 cells assessed as cell viability at 12.5 uM preincubated for 2 hrs followed by amyloid beta (1 to 42 residues) addition measured after 24 hrs by MTT assay (reference value: 50.5%). It counts as functional. To be noted: read-out: Activity.
For data set [13], the system named is PC-12. Briefly: Neuroprotective activity against amyloid beta (1 to 42 residues) induced cell death in rat PC12 cells assessed as cell viability at 6.25 uM preincubated for 2 hrs followed by amyloid beta (1 to 42 residues) addition measured after 24 hrs by MTT assay (reference value: 50.5%). It counts as functional. To be noted: read-out: Activity.
Data set [14] concerns Mus musculus. Briefly: Toxicity in Kunming mouse assessed as mortality up to 2000 mg/kg, po measured up to 14 days post dose. Format: organism-based. To be noted: in vivo, 336 h.
In data set [15] the test system is PC-12. Description: Neuroprotective activity against H2O2-induced oxidative damage in rat PC12 cells assessed as increase in cell viability at 6.25 uM after 24 hrs by MTT assay. Format: functional, cell-based.
For data set [16], the system named is Mus musculus. Briefly: Toxicity in Kunming mouse assessed as effect on water consumption up to 2000 mg/kg, po measured up to 14 days post dose. Format: organism-based. To be noted: in vivo, 336 h.
Data set [17] in a line: Selectivity index, ratio of IC50 for equine serum BuChE to IC50 for Electric eel AChE.
Data set [18] has as its target Acetylcholinesterase (Electrophorus electricus, UniProt O42275). Briefly: Inhibition of electric eel AChE using acetylthiocholine iodide as substrate pretreated for 6 mins followed by substrate addition measured up to 180 sec by Ellman's method.
The next data set addresses Cholinesterase (Equus caballus, UniProt P81908). Description: Inhibition of equine serum BuChE using s-butyrylthiocholine iodide as substrate preincubated for 6 mins followed by substrate addition measured up to 180 sec by Ellman's method.

Sequence of Acetylcholinesterase (Homo sapiens, UniProt P22303) (P22303 whole entry): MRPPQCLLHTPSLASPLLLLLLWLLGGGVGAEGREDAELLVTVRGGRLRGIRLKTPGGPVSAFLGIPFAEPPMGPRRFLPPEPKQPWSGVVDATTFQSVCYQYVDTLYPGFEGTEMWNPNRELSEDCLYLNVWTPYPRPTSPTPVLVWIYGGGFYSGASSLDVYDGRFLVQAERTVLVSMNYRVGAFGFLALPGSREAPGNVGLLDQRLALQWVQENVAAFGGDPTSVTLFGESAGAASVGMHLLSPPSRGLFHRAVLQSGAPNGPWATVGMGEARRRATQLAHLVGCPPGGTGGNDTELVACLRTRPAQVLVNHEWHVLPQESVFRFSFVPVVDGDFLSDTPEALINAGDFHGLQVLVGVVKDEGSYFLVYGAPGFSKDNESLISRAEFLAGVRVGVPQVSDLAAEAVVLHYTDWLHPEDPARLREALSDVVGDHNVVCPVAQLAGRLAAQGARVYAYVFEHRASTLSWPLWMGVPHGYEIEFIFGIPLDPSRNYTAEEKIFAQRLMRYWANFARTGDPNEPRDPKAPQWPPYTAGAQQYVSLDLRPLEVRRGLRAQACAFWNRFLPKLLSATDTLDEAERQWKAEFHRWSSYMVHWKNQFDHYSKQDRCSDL
Sequence of Amyloid-beta precursor protein (Homo sapiens) (P05067 whole entry, the tested form may be a part): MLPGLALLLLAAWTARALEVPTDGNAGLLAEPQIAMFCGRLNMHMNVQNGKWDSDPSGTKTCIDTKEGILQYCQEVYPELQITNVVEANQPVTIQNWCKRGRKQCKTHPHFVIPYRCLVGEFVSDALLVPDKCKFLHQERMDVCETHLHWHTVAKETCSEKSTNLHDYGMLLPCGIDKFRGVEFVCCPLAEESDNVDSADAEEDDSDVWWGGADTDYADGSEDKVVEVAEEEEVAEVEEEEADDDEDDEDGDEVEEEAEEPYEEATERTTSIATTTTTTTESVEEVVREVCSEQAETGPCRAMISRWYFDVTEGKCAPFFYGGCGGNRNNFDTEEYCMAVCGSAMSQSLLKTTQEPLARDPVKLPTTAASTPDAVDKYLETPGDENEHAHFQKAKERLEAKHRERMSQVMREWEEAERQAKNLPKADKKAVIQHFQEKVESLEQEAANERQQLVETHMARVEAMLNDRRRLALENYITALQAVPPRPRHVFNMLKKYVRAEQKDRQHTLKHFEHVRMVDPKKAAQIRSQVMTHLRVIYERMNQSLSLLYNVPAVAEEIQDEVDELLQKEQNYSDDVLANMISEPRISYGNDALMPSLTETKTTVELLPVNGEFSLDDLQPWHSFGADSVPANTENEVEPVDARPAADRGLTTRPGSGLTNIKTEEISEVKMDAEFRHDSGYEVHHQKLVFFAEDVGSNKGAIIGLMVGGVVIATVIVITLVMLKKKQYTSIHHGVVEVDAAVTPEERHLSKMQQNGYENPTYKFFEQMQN
Sequence of Acetylcholinesterase (Electrophorus electricus, UniProt O42275) (O42275 whole entry): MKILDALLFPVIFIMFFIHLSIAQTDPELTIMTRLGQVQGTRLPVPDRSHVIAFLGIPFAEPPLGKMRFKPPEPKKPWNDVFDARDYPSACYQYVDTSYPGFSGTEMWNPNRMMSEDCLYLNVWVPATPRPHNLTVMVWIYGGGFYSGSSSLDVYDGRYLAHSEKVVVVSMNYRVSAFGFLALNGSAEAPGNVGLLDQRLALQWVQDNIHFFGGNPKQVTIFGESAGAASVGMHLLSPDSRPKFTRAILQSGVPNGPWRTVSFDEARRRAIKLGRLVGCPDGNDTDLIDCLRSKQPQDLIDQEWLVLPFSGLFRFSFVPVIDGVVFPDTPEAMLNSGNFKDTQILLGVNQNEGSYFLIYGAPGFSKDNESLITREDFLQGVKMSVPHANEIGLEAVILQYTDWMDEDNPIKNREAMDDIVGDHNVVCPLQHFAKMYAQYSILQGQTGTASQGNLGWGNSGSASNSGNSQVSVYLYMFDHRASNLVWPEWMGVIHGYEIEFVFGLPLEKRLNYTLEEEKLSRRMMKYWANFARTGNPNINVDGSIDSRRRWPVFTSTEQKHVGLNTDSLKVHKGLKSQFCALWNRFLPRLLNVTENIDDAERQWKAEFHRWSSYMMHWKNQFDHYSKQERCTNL
Sequence of Cholinesterase (P81908 whole entry): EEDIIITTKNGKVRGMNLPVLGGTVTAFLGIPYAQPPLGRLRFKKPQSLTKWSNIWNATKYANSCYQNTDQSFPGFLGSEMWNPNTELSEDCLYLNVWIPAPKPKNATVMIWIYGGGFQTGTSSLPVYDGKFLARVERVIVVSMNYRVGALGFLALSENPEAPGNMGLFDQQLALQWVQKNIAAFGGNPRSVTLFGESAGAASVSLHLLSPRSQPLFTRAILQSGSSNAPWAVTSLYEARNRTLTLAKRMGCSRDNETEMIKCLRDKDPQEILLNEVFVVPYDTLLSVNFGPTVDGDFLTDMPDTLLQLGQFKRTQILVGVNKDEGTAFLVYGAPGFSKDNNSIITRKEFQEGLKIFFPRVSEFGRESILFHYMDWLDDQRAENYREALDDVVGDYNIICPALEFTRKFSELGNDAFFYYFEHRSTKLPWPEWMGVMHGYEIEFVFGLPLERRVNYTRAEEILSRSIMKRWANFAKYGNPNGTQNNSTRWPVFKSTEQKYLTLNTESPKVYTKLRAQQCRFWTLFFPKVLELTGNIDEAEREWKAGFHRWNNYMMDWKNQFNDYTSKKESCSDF
Sequence of Acetylcholinesterase (Electrophorus electricus) (O42275 24-633 limits assumed): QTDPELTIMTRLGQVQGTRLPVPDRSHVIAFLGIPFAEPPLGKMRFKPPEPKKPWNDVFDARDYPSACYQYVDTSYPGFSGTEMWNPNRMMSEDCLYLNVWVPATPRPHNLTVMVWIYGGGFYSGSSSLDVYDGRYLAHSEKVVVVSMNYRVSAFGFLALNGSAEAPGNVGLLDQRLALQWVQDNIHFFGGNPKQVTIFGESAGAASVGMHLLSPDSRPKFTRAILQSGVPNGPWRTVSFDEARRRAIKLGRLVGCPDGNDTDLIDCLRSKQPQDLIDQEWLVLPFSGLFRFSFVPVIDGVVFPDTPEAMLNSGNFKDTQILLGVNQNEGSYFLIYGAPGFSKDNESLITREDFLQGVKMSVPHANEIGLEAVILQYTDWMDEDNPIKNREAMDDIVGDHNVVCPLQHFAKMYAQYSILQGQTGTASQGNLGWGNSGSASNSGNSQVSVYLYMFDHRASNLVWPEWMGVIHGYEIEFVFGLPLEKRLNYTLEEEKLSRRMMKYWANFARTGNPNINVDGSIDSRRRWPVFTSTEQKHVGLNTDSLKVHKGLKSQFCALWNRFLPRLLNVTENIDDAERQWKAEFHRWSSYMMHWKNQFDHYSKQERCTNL
Description for physchem: Permeability of the compound at 200 uL after 16 hrs by PAMPA-BBB assay

A word on the Papp: it is the rate of passage across a membrane or cell layer, normalised by area and donor concentration. A lower Papp goes with slow passage. By inhibition is commonly meant how much of the control response was suppressed. In general, IC50 refers to the concentration that gives 50% inhibition. As to `COc1cc2c(cc1OC)C(=O)/C(=C/c1cc[n+](Cc3ccccc3F)cc1)C2.[Br-]`, the viability at 3.12 µM in the data set with PC-12 [1] came out at 66.5%. For the same molecule, the Activity entry was “Non-Toxic” in the data set with PC-12 [2]; “Non-Toxic” with Mus musculus [3]; “Non-Toxic” in the data set with Mus musculus [4]; 0.54 equiv in data set [10]; “Non-Toxic” in the data set on Mus musculus [14]; “Non-Toxic” with Mus musculus [16]. This molecule gave a Papp at 16 h in “physchem” of 49.7 nm/s. In addition, the inhibition result in data set [5] and in data set [11] was “Active” in each case. The viability at 12.5 µM in the data set with PC-12 [6] was 73.2%; in the data set on PC-12 [12] it was 76.3%. For the same molecule, on Acetylcholinesterase [7], the IC50 is 0.8 nM. In [8], the inhibition was found to be 53.7%. In addition, the viability at 1.56 µM with PC-12 [9] worked out at 53.7%. Besides, in the data set with PC-12 [13], the viability at 6.25 µM amounted to 72.3%. Besides, the outcome in the data set on PC-12 [15] was Active.
As to `COc1cc2c(cc1OC)C(=O)/C(=C/c1cc[n+](Cc3ccccc3Br)cc1)C2`, in data set [17], the Ratio IC50 was above 3450. In addition, the figures for the IC50 on Acetylcholinesterase [7] and at Acetylcholinesterase [18] were 3.8 nM and 2.9 nM, respectively. In addition, in data set [8], the inhibition worked out at 56.7%. Besides, in data set [10], the Activity came to 0.37 equiv.
For `COc1cc2c(cc1OC)C(=O)/C(=C/c1cc[n+](Cc3cccc(Br)c3)cc1)C2` the same measures were above 2270, 5.2 nM, 4.4 nM, 53.4% and 0.32 equiv.
The like results for `COc1cc2c(cc1OC)C(=O)/C(=C/c1cc[n+](Cc3cccc(F)c3)cc1)C2` were, in that order, above 2940, 2.9 nM, 3.4 nM, 43.5% and 0.47 equiv.
The like results for `COc1cc2c(cc1OC)C(=O)/C(=C/c1cc[n+](Cc3ccc(C)cc3)cc1)C2` were, in that order, above 391, 18.6 nM, 25.6 nM, 49.9% and 0.39 equiv.
In the case of `COc1cc2c(cc1OC)C(=O)/C(=C/c1cc[n+](Cc3ccccc3)cc1)C2`, the Ratio IC50 in [17] was above 3450. The IC50 was 3.4 nM at Acetylcholinesterase [7] and 2.9 nM at Acetylcholinesterase [18]. In addition, the inhibition in data set [8] was 45.6%. Besides, the Activity in [10] was found to be 0.51 equiv.
For `COc1cc2c(cc1OC)C(=O)/C(=C/c1cc[n+](Cc3ccc(Br)cc3)cc1)C2`, the Ratio IC50 in data set [17] was above 129. Further, the IC50 was determined as 69.7 nM at Acetylcholinesterase [7] and 77.3 nM on Acetylcholinesterase [18]. For the same molecule, in data set [8], the inhibition stood at 50.2%. Moreover, the Activity in [10] worked out at 0.38 equiv.
The like results for `COc1cc2c(cc1OC)C(=O)/C(=C/c1cc[n+](Cc3ccccc3C)cc1)C2` were, in that order, above 1960, 5.8 nM, 5.1 nM, 38.7% and 0.41 equiv.
Regarding `COc1cc2c(cc1OC)C(=O)C(CC1CCN(Cc3ccccc3)CC1)C2` (stereo not given), the Activity in data set [10] was 0.63 equiv.
In the case of `COc1cc2c(cc1OC)C(=O)/C(=C/c1cc[n+](Cc3ccc([N+](=O)[O-])cc3)cc1)C2`, in data set [17], the Ratio IC50 was above 130. In addition, the IC50 on Acetylcholinesterase [7] turned out to be 59.5 nM; at Acetylcholinesterase [18], 74.6 nM. For the same molecule, in data set [8], the inhibition stood at 47.2%. In addition, the Activity in data set [10] is 0.49 equiv.
Consider `COc1cc2c(cc1OC)C(=O)/C(=C/c1cc[n+](Cc3ccc(F)cc3)cc1)C2`, for which the Ratio IC50 in data set [17] was determined as 1170. The values for the IC50 at Acetylcholinesterase [7], on Acetylcholinesterase [18] and at Cholinesterase were 4.1 nM, 4.6 nM and 5400 nM, respectively. Moreover, the inhibition in data set [8] amounted to 47.6%. The Activity in data set [10] is 0.51 equiv.
For the molecule `COc1cc2c(cc1OC)C(=O)/C(=C/c1cc[n+](Cc3cccc(C)c3)cc1)C2`, the Ratio IC50 in data set [17] is above 2380. For the same molecule, the IC50 worked out at 4 nM on Acetylcholinesterase [7] and 4.2 nM on Acetylcholinesterase [18]. For the same molecule, in [8], the inhibition was determined as 42.6%. Besides, in [10], the Activity is 0.47 equiv.
For the molecule `C[C@]12CC[C@@H]3c4ccc(O)cc4CC[C@H]3[C@@H]1CC[C@@H]2O` [ESTRADIOL], the Papp at 16 h in “physchem” was determined as 113 nm/s.
For `COc1cc2c(cc1OC)C(=O)/C(=C/c1cc[n+](Cc3cccc([N+](=O)[O-])c3)cc1)C2`, the Ratio IC50 in data set [17] is above 1690. Also, the IC50 on Acetylcholinesterase [7] stood at 3.6 nM; on Acetylcholinesterase [18], 5.9 nM. Also, in data set [8], the inhibition turned out to be 50.8%. Moreover, the Activity in [10] was found to be 0.33 equiv.
